Laboratory results from PubChem BioAssay (NCI).
Values joined by “and” are separate entries in the source; they are usually repeats but may differ in a detail not shown here. Equal values may be shown once.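 These data come from cells grown in 96-well plates and exposed to compound for 48 hours at five concentrations. Abbreviation: GI50, concentration required for 50% inhibition of growth. TGI marks complete inhibition of growth.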

Legend:
Assay in all cases: DTP human tumour cell line panel, 48 h
OVCAR-8 ovarian = tested on: OVCAR-8 ovarian
SR leukemia = tested on: SR leukemia
NCI-H226 lung = tested on: NCI-H226 lung
SW-620 colon = tested on: SW-620 colon
HCT-15 colon = tested on: HCT-15 colon
RPMI-8226 leukemia = tested on: RPMI-8226 leukemia
COLO 205 colon = tested on: COLO 205 colon
HCT-116 colon = tested on: HCT-116 colon
MALME-3M melanoma = tested on: MALME-3M melanoma
HOP-62 NSCLC = tested on: HOP-62 NSCLC
ACHN renal = tested on: ACHN renal
HOP-92 NSCLC = tested on: HOP-92 NSCLC
HCC-2998 colon = tested on: HCC-2998 colon
RXF 393 renal = tested on: RXF 393 renal
UO-31 renal = tested on: UO-31 renal
SNB-78 CNS = tested on: SNB-78 CNS
U251 CNS = tested on: U251 CNS
SNB-19 CNS = tested on: SNB-19 CNS
SF-539 CNS = tested on: SF-539 CNS
KM12 colon = tested on: KM12 colon
DMS 114 small cell lung = tested on: DMS 114 small cell lung
HT29 colon = tested on: HT29 colon
SK-MEL-5 melanoma = tested on: SK-MEL-5 melanoma
M19-MEL melanoma = tested on: M19-MEL melanoma
MDA-MB-435 = tested on: MDA-MB-435
MDA-MB-231 breast = tested on: MDA-MB-231 breast
MCF7 breast = tested on: MCF7 breast
EKVX NSCLC = tested on: EKVX NSCLC
NCI-H23 lung = tested on: NCI-H23 lung
M14 melanoma = tested on: M14 melanoma
HS 578T breast = tested on: HS 578T breast
NCI-H522 lung = tested on: NCI-H522 lung
OVCAR-3 ovarian = tested on: OVCAR-3 ovarian
A498 renal = tested on: A498 renal
CAKI-1 renal = tested on: CAKI-1 renal
SK-MEL-2 melanoma = tested on: SK-MEL-2 melanoma
SNB-75 CNS = tested on: SNB-75 CNS
TK-10 renal = tested on: TK-10 renal
SF-268 CNS = tested on: SF-268 CNS
RXF-631 renal = tested on: RXF-631 renal
XF 498 CNS = tested on: XF 498 CNS
NCI-H460 lung = tested on: NCI-H460 lung
MOLT-4 leukemia = tested on: MOLT-4 leukemia
KM20L2 colon = tested on: KM20L2 colon
DLD-1 colon = tested on: DLD-1 colon
MDA-N = tested on: MDA-N
DU-145 prostate = tested on: DU-145 prostate
DMS 273 small cell lung = tested on: DMS 273 small cell lung
UACC-62 melanoma = tested on: UACC-62 melanoma
IGROV1 ovarian = tested on: IGROV1 ovarian
NCI/ADR-RES ovarian = tested on: NCI/ADR-RES ovarian
SF-295 CNS = tested on: SF-295 CNS
CCRF-CEM leukemia = tested on: CCRF-CEM leukemia

With `CN1C(=O)CC2(C)c3cc(O)ccc3N(C)C12` (stereo not given) the TGI (OVCAR-8 ovarian) was 61.4 µM, the GI50 (SR leukemia) was 13.9 µM and the TGI (SR leukemia) was 45.2 µM and 51.5 µM. For the same molecule, the GI50 (NCI-H226 lung) was 19.5 µM, the TGI (NCI-H226 lung) was 54.4 µM and 71.9 µM and the GI50 (SW-620 colon) was 13.9 µM. The TGI (SW-620 colon) was 28.9 µM and 42.6 µM, the GI50 (HCT-15 colon) was 14.3 µM and the TGI (HCT-15 colon) was 25.9 µM and 41.9 µM. The GI50 (RPMI-8226 leukemia) was 20.3 µM, the TGI (RPMI-8226 leukemia) was 64.8 µM and 67.3 µM and the GI50 (COLO 205 colon) was 24.1 µM. For the same molecule, the TGI (COLO 205 colon) was 75 µM and 63.1 µM, the GI50 (HCT-116 colon) was 22.8 µM and the TGI (HCT-116 colon) was 51.8 µM and 42.1 µM. The GI50 (MALME-3M melanoma) was greater than 75 µM, the TGI (MALME-3M melanoma) was > 75 µM and 93.5 µM and the TGI (HOP-62 NSCLC) was 60.7 µM. The GI50 (ACHN renal) was 25.6 µM, the TGI (ACHN renal) was 75 µM and > 100 µM and the GI50 (HOP-92 NSCLC) was 18.4 µM. For the same molecule, the TGI (HOP-92 NSCLC) was 57.9 µM and > 95.9 µM, the GI50 (HCC-2998 colon) was greater than 75 µM and the TGI (HCC-2998 colon) was greater than 100 µM. The GI50 (RXF 393 renal) was 48.4 µM, the TGI (RXF 393 renal) was 75 µM and 66.5 µM and the TGI (UO-31 renal) was greater than 90.9 µM. The TGI (SNB-78 CNS) was greater than 100 µM, the GI50 (U251 CNS) was 14.4 µM and the TGI (U251 CNS) was 25 µM and 31.2 µM. The GI50 (SNB-19 CNS) was greater than 75 µM, the TGI (SNB-19 CNS) was > 75 µM and 68.1 µM and the GI50 (SF-539 CNS) was 14.5 µM. The TGI (SF-539 CNS) was 26.9 µM and > 76.5 µM, the GI50 (KM12 colon) was 42.6 µM and the TGI (KM12 colon) was 75 µM and 42.7 µM. The TGI (DMS 114 small cell lung) was greater than 100 µM, the GI50 (HT29 colon) was 21.4 µM and the TGI (HT29 colon) was 64.5 µM and 51 µM. For the same molecule, the GI50 (SK-MEL-5 melanoma) was 54.1 µM, the TGI (SK-MEL-5 melanoma) was 75 µM and 50.5 µM and the TGI (M19-MEL melanoma) was 46.2 µM. The GI50 (MDA-MB-435) was 9.51 µM, the TGI (MDA-MB-435) was 19.7 µM and 28.4 µM and the TGI (MDA-MB-231 breast) was 40.6 µM and 34.1 µM. For the same molecule, the GI50 (MCF7 breast) was 14 µM, the TGI (MCF7 breast) was 27.8 µM and 35.8 µM and the GI50 (EKVX NSCLC) was greater than 75 µM. For the same molecule, the TGI (EKVX NSCLC) was > 75 µM and 44.2 µM, the GI50 (NCI-H23 lung) was 25.7 µM and the TGI (NCI-H23 lung) was 75 µM and 61.9 µM. The TGI (M14 melanoma) was 44.6 µM, the GI50 (HS 578T breast) was 23.7 µM and the TGI (HS 578T breast) was 69.3 µM and > 90.2 µM. The GI50 (NCI-H522 lung) was 15.6 µM, the TGI (NCI-H522 lung) was 33.2 µM and 60 µM and the GI50 (OVCAR-3 ovarian) was 16.1 µM. The TGI (OVCAR-3 ovarian) was 32 µM and 30.9 µM, the GI50 (A498 renal) was greater than 75 µM and the TGI (A498 renal) was > 75 µM and 68.2 µM. For the same molecule, the GI50 (CAKI-1 renal) was 32.4 µM, the TGI (CAKI-1 renal) was 63.5 µM and > 100 µM and the GI50 (SK-MEL-2 melanoma) was greater than 75 µM. The TGI (SK-MEL-2 melanoma) was greater than 94.3 µM, the GI50 (SNB-75 CNS) was greater than 75 µM and the TGI (SNB-75 CNS) was > 75 µM and 68.3 µM. The GI50 (TK-10 renal) was greater than 75 µM, the TGI (TK-10 renal) was greater than 100 µM and the GI50 (SF-268 CNS) was 38.6 µM. The TGI (SF-268 CNS) was 75 µM and 60.6 µM, the TGI (RXF-631 renal) was greater than 100 µM and the TGI (XF 498 CNS) was 33 µM. For the same molecule, the GI50 (NCI-H460 lung) was 13.9 µM, the TGI (NCI-H460 lung) was 26 µM and > 82.3 µM and the TGI (MOLT-4 leukemia) was 44.7 µM and 40.1 µM. It also gave a TGI (KM20L2 colon) greater than 100 µM, a TGI (DLD-1 colon) greater than 100 µM and a GI50 (MDA-N) of 12.9 µM. The TGI (MDA-N) was 25.7 µM and 31.7 µM, the GI50 (DU-145 prostate) was greater than 75 µM and the TGI (DU-145 prostate) was greater than 75 µM. The TGI (DMS 273 small cell lung) was greater than 100 µM, the TGI (UACC-62 melanoma) was 38.6 µM and 45.5 µM and the TGI (IGROV1 ovarian) was 75 µM and 68.8 µM. For the same molecule, the GI50 (NCI/ADR-RES ovarian) was 17.2 µM, the TGI (NCI/ADR-RES ovarian) was 75 µM and 34.3 µM and the GI50 (SF-295 CNS) was 13 µM. The TGI (SF-295 CNS) was 23.7 µM and 54.9 µM, the GI50 (CCRF-CEM leukemia) was 9.66 µM and the TGI (CCRF-CEM leukemia) was 40.8 µM and 62.7 µM.
